Test results from patent publication US9932339B2, “Helquats with heteroaromatic substituents, preparation thereof, and use thereof as G-quadruplex stabilizers” (USTAV ORGANICKE CHEMIE A BIOCHEMIE AV CR, V.V.I., priority 2014, dated 2018).

Tests used:
[1] = tested on: G-quadruplex oligonucleotide Fmyc27T (NHE III1 promoter region of c-myc oncogene); experiment: FRET melting of G-quadruplex oligonucleotide Fmyc27T with ligands; format: binding; settings: for ΔTm (° C.) Fmyc27T/ds26 (° C.): helquat 1 μmol·l^−1, oligonucleotide 0.2 μmol·l^−1, 50-fold excess of double-stranded competitor ds26; for ΔTm (° C.) Fmyc27T: helquat 1 μmol·l^−1, oligonucleotide 0.2 μmol·l^−1, without competitor
Excerpt: (§1) To determine the degree of in vitro interactions of helquats with G-quadruplex(es), the oligonucleotides containing the guanine-rich sequences of human telomere (F21T) and NHE III1 promoter region of c-myc oncogene (Fmyc27T) were used. Both oligonucleotides capable of forming an intramolecular G-quadruplex were end-labeled with suitable fluorophores so as to form donor-acceptor FRET pair (5′-FAM and 3′-TAMRA). If the oligonucleotide is folded into the structure of the G-quadruplex, donor is in close proximity of acceptor and radiationless energy transfer to the acceptor occurs. With increasing temperature of the reaction mixture G-quadruplex structure gradually denatures and thus the donor and acceptor (FAM-TAMRA) drift apart. This leads to an increase in fluorescence of donor (FAM) and a decrease in fluorescence of acceptor (TAMRA).
(§2) The result of measurement is the curve of dependence of the intensity of fluorescence of the donor on the temperature. If the G-quadruplex is stabilized by ligand, melting temperature will increase. Melting temperature of G-quadruplex corresponds to the temperature when 50% of the original amount of the folded G-quadruplex is denatured. The measurement outcome is the difference in the melting temperatures (ΔTm) of the G-quadruplex alone and the G-quadruplex stabilized by ligand. In case of Fmyc27T experiments were performed in cacodylate buffer (10 mmol·l^−1, pH=7.2) with KCl (5 mmol·l^−1) and LiCl (95 mmol·l^−1) oligonucleotide and in case of F21T oligonucleotide in cacodylate buffer (10 mmol·l^−1, pH=7.2) with KCl (25 mmol·l^−1) and LiCl (75 mmol·l^−1).
(§3) Both oligonucleotides were denatured for 5 minutes at 95° C. and subsequently allowed to cool to room temperature (3 hours) in the switched-off thermoblock. The final oligonucleotide concentration in the reaction mixture was 0.2 μmol·l^−1. Test helquats were present at concentrations of 1 μmol·l^−1. The total reaction volume was 30 μl. The melting temperature of the oligonucleotides alone (without the presence of helquats) under these conditions was 58.1±0.2° C. for F21T and 64.7±0.4° C. for Fmyc27T. For determining the selectivity of binding of helquats to G-quadruplex in comparison with the double-stranded DNA, 50-fold excess of double-stranded DNA ([…] unlabeled competitor ds26 forming a hairpin) is added to the reaction mixture. After the addition to the reaction mixture ds26 competes with labeled oligonucleotide (Fmyc27T or F21T) for ligand binding. […] Melting temperature of oligonucleotides alone in the presence of the competitor is 59.4±0.5° C. for F21T and 66.3° C.±0.6° C. for Fmyc27T.
(§4) Fluorescence of FAM donor was measured using real-time PCR apparatus Opticon 2 (excitation 470-505 nm and emission 523-543 nm) in temperature increments of 0.5° C. in the range 25 to 95° C. Evaluation of the sigmoid curves of fluorescence intensity dependent on the temperature were performed in GraphPad Prism 5 (GraphPad Software, Inc., USA). Using nonlinear five parametric regression the inflection point on the curve was calculated that corresponds to the melting temperature (Tm) of the G-quadruplex under the given conditions. The values were obtained from at least three independent measurements.

[2] = tested on: G-quadruplex oligonucleotide F21T (human telomere); experiment: FRET melting of G-quadruplex oligonucleotide F21T with ligands; format: binding; settings: for ΔTm (° C.) F21T/ds26: helquat 1 μmol·l^−1, oligonucleotide 0.2 μmol·l^−1, 50-fold excess of double-stranded competitor ds26; for ΔTm (° C.) F21T: helquat 1 μmol·l^−1, oligonucleotide 0.2 μmol·l^−1, without competitor
Excerpt: as §1, §2, §3, §4

[3] = tested on: G-quadruplex in promoter region of the c-myc gene (NHE III1 segment); experiment: Dual luciferase analysis with plasmid pGL4.10-myc (luc2) in HGC-27 cells; format: cell-based, human; settings: Homo sapiens; for inhibition at 50 µM: HGC-27, text summary of tab. 5 (50 μmol·l^−1), read-out: inhibition of expression of firefly luciferase as compared to control; for activity at 50 µM: helquat 50 μmol · l^−1, HGC-27, firefly normalized to Renilla, 24 hours after transfection, read-out: luciferase expression relative to control (control = 100%)
Excerpt: A dual luciferase analysis was used to determine the degree of stabilization of G-quadruplex in a promoter region of the c-myc gene on cellular level. Stabilization of G-quadruplex is expressed as the ratio of expression of two luciferases (firefly and Renilla) from the co-transfected vectors pGL4.10-myc (luc2) and pRL-TK (Renilla) into a cell line HGC-27 expressing c-myc protein. Expression of the reporter gene (firefly luciferase) from pGL4.10-myc vector is controlled by the c-myc regulatory region of a length of 860 by (in the range from −306 to +554). The inserted sequence contains NHE III1 segment which forms G-quadruplex [Yang, D. et al. (2010) Future Med Chem., 2, 619], and is responsible for as much as 90% of the transcriptional activity of the c-myc gene.
Level of expression of firefly luciferase reporter gene corresponds to promoter activity of c-myc and thus to the degree of stabilization of the G-quadruplex. The signal is normalized to Renilla luciferase expression from pRL-TK vector under the control of a constitutive viral thymidine kinase (HSV-TK) promoter. The amount of Renilla luciferase expression serves as an internal control for normalization of firefly signal on transfection efficiency in the sample. Plasmids pGL4.10-myc (luc2) and pRL-TK were propagated in Escherichia coli (DH5α strain) and purified using the Qiagen Plasmid Mini and Midi kits. Cells were cultured under standard conditions and in exponential growth phase were seeded into a white 96-well microtiter plates. Transfection was carried out using a transfection reagent X-tremeGENE HP DNA in OptiMEM media for two hours. The ratio of reporter and control vector was 1:1 and the ratio of transfection reagent to the total amount of DNA was 1:1. Two hours after transfection helquats were added in a concentration of 50 μmol·l^−1. Quantity of firefly and Renilla luciferases in the samples was determined 24 hours after transfection. Dual luciferase analysis was performed using a commercially available kit (Promega, cat. No. E1960) according to manufacturer's instructions. Luminescence was measured using a luminometer EnSpire Alpha Plate Reader. The data obtained were normalized to the Renilla luciferase signal and then the values were related to control.

[4] = tested on: c-myc protein; experiment: Immunodetection of protein c-myc in HGC-27 cell lysates (Western blot); format: cell-based, human; settings: 50 μmol · l^−1, 24 hour incubation, normalized to β-actin
Experimental: Determination of changes in c-myc protein expression (transcription factor) in cell lysates prepared from tumor cell line HGC-27 after treatment with test helquats (Tab. 7) was carried out by immunodetection after separation of proteins according to their size by gel electrophoresis (SDS-PAGE) and blotting.
To determine the influence helquats on expression of c-myc protein, the cells were cultured under standard conditions and in the exponential growth phase were seeded into flasks at a density of 25,000 cells/cm^2. The next day selected helquats were added at a concentration of 50 μmol·l^−1. After 24 hour incubation, the cell pellets were obtained and, after addition of RIPA buffer with protease inhibitors (PrIC) and phosphatases (PhIC) (for composition see Tab. 8) cell lysates were prepared. 150 μl of RIPA buffer was used for 10^7 cells. Protein concentrations in the lysates were measured by BCA method. Separation of proteins in the lysates was carried out on a 12% denaturing polyacrylamide gel. The separated proteins were transferred to PVDF membrane by Western blotting.
Incubation with primary mouse monoclonal antibody against the protein c-myc (dilution 1:1000 in “SignalBoost” reagent) was carried out overnight at 4° C., and then with the primary mouse anti-β-actin (1:5000 dilution in 5% milk in TBS-T buffer) at room temperature for 2 hours. Subsequently, the secondary horse monoclonal antibody conjugated to horseradish peroxidase (diluted 1:2000 in 5% milk in TBS-T buffer) binding to mouse IgG antibody was applied. C-myc proteins and β-actin bound to the membrane were visualized using detection kit (SuperSignal® West Femto Maximum Sensitivity Substrate, Cat. No. 34095, Thermo Fisher Scientific, Inc., USA) in the chemiluminescence detection system ImageQuant LAS 4000 Mini (Cat. No. 28-9558-13, GE Healthcare Life Sciences, USA). The amount of protein was quantified by densitometry in Quantity One software. The amount of c-myc in the samples was normalized to β-actin, and subsequently related to a control sample.

| Compound | ΔTm (° C.) Fmyc27T/ds26 (° C.) [1] | ΔTm (° C.) Fmyc27T [1] | ΔTm (° C.) F21T/ds26 [2] | ΔTm (° C.) F21T [2] | inhibition at 50 µM [3] | activity at 50 µM [3] | c-myc protein expression relative to control (control = 100%) [4] |
| --- | --- | --- | --- | --- | --- | --- | --- |
| COc1ccc(/C=C/c2cc[n+]3c(c2)-c2c(ccc4c2-c2cc(/C=C/c5ccc(OC)nc5OC)cc[n+]2CC4)CC3)c(OC)n1 [PDA-C8-27, 2,15-bis((E)-2-(2,6-dimethoxypyridin-3-yl)vinyl)-6,7,10,11-tetrahydrodipyrido[2,1-a:1′,2′-k][2,9]phenanthroline-5,12-diium trifluoromethanesulfonate] | 9.6 °C | 11.8 °C | 7.0 °C | 9.3 °C | > 20% | 77% | – |
| Cn1cc(/C=C/c2cc[n+]3c(c2)-c2c(ccc4c2-c2cc(/C=C/c5cn(C)c6ccccc56)cc[n+]2CC4)CC3)c2ccccc21 [PDA-C10-13, 2,15-bis((E)-2-(1-methyl-1H-indol-3-yl)vinyl)-6,7,10,11-tetrahydrodipyrido[2,1-a:1′,2′-k][2,9]phenanthroline-5,12-diium trifluoromethanesulfonate] | 13.6 °C | 13.8 °C | 9.1 °C | 9.7 °C | – | – | – |
| Cc1c(C)c2c(c3c1CC[n+]1ccc(/C=C/c4c(-c5ccccc5)[nH]c5ccccc45)cc1-3)-c1cc(/C=C/c3c(-c4ccccc4)[nH]c4ccccc34)cc[n+]1CC2 [PDB-C15-8, 8,9-dimethyl-2,15-bis((E)-2-(2-phenyl-1H-indol-3-yl)vinyl)-6,7,10,11-tetrahydrodipyrido[2,1-a:1′,2′-k][2,9]phenanthroline-5,12-diium trifluoromethanesulfonate] | 14.5 °C | 15.7 °C | 11.1 °C | 11.3 °C | – | – | – |
| CCCCCCc1ccc(/C=C/c2cc[n+]3c(c2)-c2c(c(C)c(C)c4c2-c2c5ccccc5cc[n+]2CC4)CC3)s1.O=S(=O)([O-])C(F)(F)F.O=S(=O)([O-])C(F)(F)F [MJA-C11-25, (E)-13-(2-(5-hexylthiophen-2-yl)vinyl)-6,7-dimethyl-4,5,8,9-tetrahydroisoquinolino[1,2-a]pyrido[1,2-k][2,9]phenanthroline-3,10-diium trifluoromethanesulfonate] | – | – | – | – | – | – | 66% |
| C(=C\c1ccc(-c2cccs2)s1)/c1cc[n+]2c(c1)-c1c(ccc3c1-c1cccc[n+]1CC3)CC2.O=S(=O)([O-])C(F)(F)F.O=S(=O)([O-])C(F)(F)F [LSA-C9-16, (E)-2-(2-([2,2′-bithiophen]-5-yl)vinyl)-6,7,10,11-tetrahydrodipyrido[2,1-a:1′,2′-k][2,9]phenanthroline-5,12-diium trifluoromethanesulfonate] | – | – | – | – | – | – | 28% |
| COc1ccc(/C=C/c2cc[n+]3c(c2)-c2c(c(C)c(C)c4c2-c2cccc(/C=C/c5ccc(OC)nc5OC)[n+]2CC4)CC3)c(OC)n1.O=S(=O)([O-])C(F)(F)F.O=S(=O)([O-])C(F)(F)F [MJB-C8-27, 2,13-bis((E)-2-(2,6-dimethoxypyridin-3-yl)vinyl)-8,9-dimethyl-6,7,10,11-tetrahydrodipyrido[2,1-a:1′,2′-k][2,9]phenanthroline-5,12-diium trifluoromethanesulfonate] | 10.0 °C | 9.7 °C | 5.2 °C | 8.0 °C | > 10% | 88% | – |
| 2,4,15,17-tetra((E)-(2-(1-methyl-1H-indol-2-yl)vinyl)-6,7,8,11,12,13-hexahydrodipyrido[1,2-a:1′,2′-a′]benzo[2,1-c:3,4-c′]bisazepindiium trifluoromethanesulfonate [PRC-C10-10] | – | – | – | – | – | – | 71% |
| C(=C\c1cc2ccccc2[nH]1)/c1cc(/C=C/c2cc3ccccc3[nH]2)[n+]2c(c1)-c1c(ccc3c1-c1cccc[n+]1CC3)CC2.O=S(=O)([O-])C(F)(F)F.O=S(=O)([O-])C(F)(F)F [HTA-C10-10, 2,4-bis((E)-2-(1H-indol-2-yl)vinyl)-6,7,10,11-tetrahydrodipyrido[2,1-a:1′,2′-k][2,9]phenanthroline-5,12-diium trifluoromethanesulfonate] | – | – | – | – | – | – | 75% |
| Brc1ccc2[nH]cc(/C=C/c3cc[n+]4c(c3)-c3c(ccc5c3-c3cc(/C=C/c6c[nH]c7ccc(Br)cc67)cc[n+]3CC5)CC4)c2c1.O=S(=O)([O-])C(F)(F)F.O=S(=O)([O-])C(F)(F)F [PDA-C9-30, 2,15-bis((E)-2-(5-bromo-1H-indol-3-yl)vinyl)-6,7,10,11-tetrahydrodipyrido[2,1-a:1′,2′-k][2,9]phenanthroline-5,12-diium trifluoromethanesulfonate] | 16.0 °C | 14.6 °C | 13.1 °C | 12.3 °C | – | – | – |
